These are literature values, as cited in article PMC4136950 (Journal of peptide science : an official publication of the …, 2010).

pIC50: −log10 of the molar value.

One may read the pIC50 as the IC50 on a negative log10 scale, so that one unit is a factor of ten.

For data set [1], the target named is NR2A NMDA receptor subtype (co-expressed with NR1-2b) (Rattus norvegicus, UniProt P35439+Q00959). The note with it: read-out: Approximate IC50, NR2A.
Data set [2] deals with NR2B NMDA receptor subtype (co-expressed with NR1-2b) (Rattus norvegicus, UniProt P35439+Q00960). The following applies: read-out: Approximate IC50, NR2B.
Data set [3] concerns the target NR2C NMDA receptor subtype (co-expressed with NR1-2b) (Rattus norvegicus, UniProt P35439+Q00961). The following applies: read-out: Approximate IC50, NR2C.
Data set [4] concerns the target NR2D NMDA receptor subtype (co-expressed with NR1-2b) (Rattus norvegicus, UniProt P35439+Q62645). The note with it: read-out: Approximate IC50, NR2D.
Data set [5] has as its system NMDA receptor subtypes NR2(A-D).

Chain of NR2A NMDA receptor subtype (co-expressed with NR1-2b) (Q00959 23-1464, other chains not shown): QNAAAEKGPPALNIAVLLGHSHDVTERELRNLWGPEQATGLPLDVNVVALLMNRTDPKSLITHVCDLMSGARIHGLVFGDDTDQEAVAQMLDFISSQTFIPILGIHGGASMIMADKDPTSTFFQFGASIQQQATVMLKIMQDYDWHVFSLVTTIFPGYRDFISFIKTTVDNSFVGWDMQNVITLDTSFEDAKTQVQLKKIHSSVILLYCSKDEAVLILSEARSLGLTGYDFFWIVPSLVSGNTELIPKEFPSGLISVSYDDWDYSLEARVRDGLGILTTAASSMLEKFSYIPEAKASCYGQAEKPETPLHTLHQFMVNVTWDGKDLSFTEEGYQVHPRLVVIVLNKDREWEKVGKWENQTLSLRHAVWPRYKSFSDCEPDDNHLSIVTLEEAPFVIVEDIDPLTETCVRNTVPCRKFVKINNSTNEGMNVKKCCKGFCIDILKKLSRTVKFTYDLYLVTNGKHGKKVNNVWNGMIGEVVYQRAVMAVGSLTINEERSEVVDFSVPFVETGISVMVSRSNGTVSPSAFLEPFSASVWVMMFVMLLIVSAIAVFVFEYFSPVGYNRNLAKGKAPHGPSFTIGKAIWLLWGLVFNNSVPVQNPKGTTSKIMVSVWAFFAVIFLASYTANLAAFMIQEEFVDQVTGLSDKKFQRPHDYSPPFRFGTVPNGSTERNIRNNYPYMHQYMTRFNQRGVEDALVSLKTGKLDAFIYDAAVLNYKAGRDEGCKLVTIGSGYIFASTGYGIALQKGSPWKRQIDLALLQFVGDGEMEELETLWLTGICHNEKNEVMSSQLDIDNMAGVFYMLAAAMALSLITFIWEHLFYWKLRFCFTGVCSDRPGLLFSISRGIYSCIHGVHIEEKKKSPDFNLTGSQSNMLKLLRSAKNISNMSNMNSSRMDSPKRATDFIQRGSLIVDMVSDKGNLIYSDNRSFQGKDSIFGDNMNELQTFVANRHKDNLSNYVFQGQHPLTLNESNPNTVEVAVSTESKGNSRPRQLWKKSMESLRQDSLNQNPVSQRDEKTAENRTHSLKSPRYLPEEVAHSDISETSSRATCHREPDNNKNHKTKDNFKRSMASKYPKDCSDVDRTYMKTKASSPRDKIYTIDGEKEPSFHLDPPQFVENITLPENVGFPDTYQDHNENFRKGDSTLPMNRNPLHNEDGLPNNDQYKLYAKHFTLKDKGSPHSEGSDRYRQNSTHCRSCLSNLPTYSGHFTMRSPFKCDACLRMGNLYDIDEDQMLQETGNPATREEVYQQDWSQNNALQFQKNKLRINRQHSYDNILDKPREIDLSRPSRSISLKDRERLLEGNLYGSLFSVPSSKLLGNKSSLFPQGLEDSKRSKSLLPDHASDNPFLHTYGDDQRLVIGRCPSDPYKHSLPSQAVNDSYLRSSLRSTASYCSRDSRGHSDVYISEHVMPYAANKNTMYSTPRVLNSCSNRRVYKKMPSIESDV
Chain of NR2B NMDA receptor subtype (co-expressed with NR1-2b) (Q00960 27-1482, other chains not shown): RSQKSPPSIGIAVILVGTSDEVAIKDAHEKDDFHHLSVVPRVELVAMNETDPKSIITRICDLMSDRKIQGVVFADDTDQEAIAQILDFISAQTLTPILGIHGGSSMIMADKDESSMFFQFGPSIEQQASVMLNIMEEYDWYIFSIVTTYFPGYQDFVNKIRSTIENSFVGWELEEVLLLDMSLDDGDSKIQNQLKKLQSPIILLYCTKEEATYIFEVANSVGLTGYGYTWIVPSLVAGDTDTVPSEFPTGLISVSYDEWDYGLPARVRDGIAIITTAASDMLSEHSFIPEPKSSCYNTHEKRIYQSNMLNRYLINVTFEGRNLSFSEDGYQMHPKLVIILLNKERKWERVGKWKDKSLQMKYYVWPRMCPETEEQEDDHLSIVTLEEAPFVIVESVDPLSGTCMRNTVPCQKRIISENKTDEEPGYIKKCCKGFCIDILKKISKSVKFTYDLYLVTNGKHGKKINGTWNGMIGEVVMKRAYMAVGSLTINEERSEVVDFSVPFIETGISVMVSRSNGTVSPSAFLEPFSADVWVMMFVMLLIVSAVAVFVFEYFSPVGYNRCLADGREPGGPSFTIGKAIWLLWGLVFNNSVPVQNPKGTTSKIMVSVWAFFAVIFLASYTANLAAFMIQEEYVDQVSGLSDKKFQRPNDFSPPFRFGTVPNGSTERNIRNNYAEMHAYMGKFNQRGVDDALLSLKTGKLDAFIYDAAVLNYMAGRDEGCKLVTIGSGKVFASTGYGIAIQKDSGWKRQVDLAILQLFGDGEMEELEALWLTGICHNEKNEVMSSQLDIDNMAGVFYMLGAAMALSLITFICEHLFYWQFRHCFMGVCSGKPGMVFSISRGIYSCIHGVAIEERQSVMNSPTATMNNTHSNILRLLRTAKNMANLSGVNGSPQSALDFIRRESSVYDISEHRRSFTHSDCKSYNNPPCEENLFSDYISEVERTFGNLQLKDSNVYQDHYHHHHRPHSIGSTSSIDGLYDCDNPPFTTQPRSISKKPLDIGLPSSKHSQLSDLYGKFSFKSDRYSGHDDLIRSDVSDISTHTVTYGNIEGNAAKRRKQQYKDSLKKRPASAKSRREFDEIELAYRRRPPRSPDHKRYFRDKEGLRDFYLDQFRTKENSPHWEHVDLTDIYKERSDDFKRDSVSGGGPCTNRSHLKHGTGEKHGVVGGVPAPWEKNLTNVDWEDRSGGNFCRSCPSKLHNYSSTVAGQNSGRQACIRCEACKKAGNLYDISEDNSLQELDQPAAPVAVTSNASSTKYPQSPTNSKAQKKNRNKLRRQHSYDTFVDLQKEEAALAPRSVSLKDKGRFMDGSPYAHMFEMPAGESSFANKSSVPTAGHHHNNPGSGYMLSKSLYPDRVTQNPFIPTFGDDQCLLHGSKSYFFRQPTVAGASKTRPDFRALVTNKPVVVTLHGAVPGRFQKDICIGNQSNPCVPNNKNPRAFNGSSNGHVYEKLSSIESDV
Chain of NR2C NMDA receptor subtype (co-expressed with NR1-2b) (Q00961 20-1237, other chains not shown): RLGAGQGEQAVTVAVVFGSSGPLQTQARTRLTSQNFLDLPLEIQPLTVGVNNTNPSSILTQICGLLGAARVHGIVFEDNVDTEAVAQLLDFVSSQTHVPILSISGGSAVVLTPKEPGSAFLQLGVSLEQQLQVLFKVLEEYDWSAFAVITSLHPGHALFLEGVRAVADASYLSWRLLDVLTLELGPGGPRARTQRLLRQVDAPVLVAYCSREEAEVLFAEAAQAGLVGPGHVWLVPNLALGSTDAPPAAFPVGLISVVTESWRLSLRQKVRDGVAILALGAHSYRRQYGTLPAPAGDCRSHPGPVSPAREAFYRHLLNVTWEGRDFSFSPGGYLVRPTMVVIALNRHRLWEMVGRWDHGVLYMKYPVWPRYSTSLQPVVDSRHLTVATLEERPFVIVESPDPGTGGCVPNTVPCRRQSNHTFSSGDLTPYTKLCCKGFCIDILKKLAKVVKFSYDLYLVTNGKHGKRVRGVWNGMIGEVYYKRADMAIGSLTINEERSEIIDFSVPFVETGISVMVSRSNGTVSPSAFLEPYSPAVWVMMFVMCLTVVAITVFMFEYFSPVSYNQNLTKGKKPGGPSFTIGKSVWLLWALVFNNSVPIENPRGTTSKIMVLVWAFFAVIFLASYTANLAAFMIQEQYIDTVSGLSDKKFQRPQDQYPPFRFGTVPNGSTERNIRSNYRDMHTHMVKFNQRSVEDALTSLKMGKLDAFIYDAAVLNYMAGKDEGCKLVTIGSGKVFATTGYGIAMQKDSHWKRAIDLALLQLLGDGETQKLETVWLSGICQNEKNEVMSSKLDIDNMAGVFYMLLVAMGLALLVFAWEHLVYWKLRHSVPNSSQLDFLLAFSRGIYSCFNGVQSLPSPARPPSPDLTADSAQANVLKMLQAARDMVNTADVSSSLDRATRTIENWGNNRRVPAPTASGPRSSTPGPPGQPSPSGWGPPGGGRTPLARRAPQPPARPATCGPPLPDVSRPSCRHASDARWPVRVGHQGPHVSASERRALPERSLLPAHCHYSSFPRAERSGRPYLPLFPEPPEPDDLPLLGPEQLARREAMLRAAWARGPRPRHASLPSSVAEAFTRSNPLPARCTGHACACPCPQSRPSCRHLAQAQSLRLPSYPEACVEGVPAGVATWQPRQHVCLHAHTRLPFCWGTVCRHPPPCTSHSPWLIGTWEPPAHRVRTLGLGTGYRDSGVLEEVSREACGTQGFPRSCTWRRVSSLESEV

For GDγγ YSK FIγ RERγ AGR LDLSKFP^^ [ConBr], the pIC50 in data set [1] is 6.17; in data set [2] it was 6.85; in data set [3], 5.31; in data set [4], 6.51. Also, the “antagonism of NMDA receptor subtypes” value in data set [5] is “known antagonist of the NR2B and NR2D NMDA receptor subtypes”.
